# Test results reported in ChEMBL document CHEMBL5331051, “Cationic, amphipathic small molecules based on a triazine-piperazine-triazine scaffold as a new class of antimicrobial agents” (Eur J Med Chem, 2022).
# Active and inactive are the calls of the source. The calls are words filed in the database; no cut-off is given here.
# Legend:
# Cell membrane [1] = test: Induction of outer membrane permeabilization in Escherichia coli KCTC 1682 assessed as increase in fluorescence intensity at 2 to 8 ug/ml by NPN staining based analysis; settings: dose 2-8 µg/ml
# Lipopolysaccharide (LPS) [2] = test: Displacement of BODIPY-TR-cadaverine from Escherichia coli O111:B4 lipopolysaccharide assessed as increase in fluorescence at 5 ug/ml by fluorescence based assay; settings: dose 5.0 µg/ml
# Lipopolysaccharide (LPS) [3] = test: Binding affinity to Escherichia coli O111:B4 lipopolysaccharide assessed as suppression of FTIC labeled LPS binding to mouse RAW264.7 cells at 20 ug/ml pretreated with LPS followed by compound addition by flow cytometer assay (reference value: 67.4%); type: cell-based; settings: dose 20.0 µg/ml
# Cell membrane [4] = test: Induction of cell membrane depolarization in Staphylococcus aureus assessed as increase in fluorescence intensity at 2 times MIC by DiSC3(5) dye based fluorescence assay
# Cell membrane [5] = test: Induction of cell membrane depolarization in Staphylococcus aureus assessed as fluorescence intensity at 2 to 16 times MIC by DiSC3(5) dye based fluorescence assay; type: subcellular
# Cell membrane [6] = test: Induction of cell membrane depolarization in Staphylococcus aureus assessed as increase in fluorescence intensity at 2 times MIC by SYTOX green staining based analysis
# Cell membrane [7] = test: Induction of inner membrane permeabilization in Escherichia coli ML-35 assessed as increase in […] at 2 times MIC by ONPG staining based analysis
# Pseudomonas aeruginosa [8] = test: Additive antibacterial activity against multidrug-resistant Pseudomonas aeruginosa CCARM 2095 strain assessed as bacterial growth inhibition by checkerboard assay; type: functional
# Pseudomonas aeruginosa [9] = test: Additive antibacterial activity against multidrug-resistant Pseudomonas aeruginosa CCARM 2095 strain assessed as chloramphenicol MIC by checkerboard assay; type: functional
# Pseudomonas aeruginosa [10] = test: Additive antibacterial activity against multidrug-resistant Pseudomonas aeruginosa CCARM 2095 strain assessed as ciprofloxacin MIC by checkerboard assay; type: functional
# Pseudomonas aeruginosa [11] = test: Additive antibacterial activity against multidrug-resistant Pseudomonas aeruginosa CCARM 2095 strain assessed as Oxacillin MIC by checkerboard assay; type: functional
# Pseudomonas aeruginosa [12] = test: Additive antibacterial activity against multidrug-resistant Pseudomonas aeruginosa CCARM 2095 strain assessed as bacterial growth inhibition in presence of chloramphenicol by checkerboard assay; type: functional
# Pseudomonas aeruginosa [13] = test: Additive antibacterial activity against multidrug-resistant Pseudomonas aeruginosa CCARM 2095 strain assessed as bacterial growth inhibition in presence of ciprofloxacin by checkerboard assay; type: functional
# Pseudomonas aeruginosa [14] = test: Additive antibacterial activity against multidrug-resistant Pseudomonas aeruginosa CCARM 2095 strain assessed as bacterial growth inhibition in presence of oxacillin by checkerboard assay; type: functional
# Pseudomonas aeruginosa [15] = test: Additive antibacterial activity against multidrug-resistant Pseudomonas aeruginosa CCARM 2095 strain assessed as chloramphenicol fractional inhibitory concentration by checkerboard assay; type: functional
# Pseudomonas aeruginosa [16] = test: Additive antibacterial activity against multidrug-resistant Pseudomonas aeruginosa CCARM 2095 strain assessed as ciprofloxacin fractional inhibitory concentration by checkerboard assay; type: functional
# Pseudomonas aeruginosa [17] = test: Additive antibacterial activity against multidrug-resistant Pseudomonas aeruginosa CCARM 2095 strain assessed as oxacillin fractional inhibitory concentration by checkerboard assay; type: functional
# Pseudomonas aeruginosa [18] = test: Additive antibacterial activity against multidrug-resistant Pseudomonas aeruginosa CCARM 2095 strain assessed as fractional inhibitory concentration in presence of chloramphenicol by checkerboard assay; type: functional
# Pseudomonas aeruginosa [19] = test: Additive antibacterial activity against multidrug-resistant Pseudomonas aeruginosa CCARM 2095 strain assessed as fractional inhibitory concentration in presence of ciprofloxacin by checkerboard assay; type: functional
# Pseudomonas aeruginosa [20] = test: Additive antibacterial activity against multidrug-resistant Pseudomonas aeruginosa CCARM 2095 strain assessed as fractional inhibitory concentration in presence of oxacillin by checkerboard assay; type: functional
# Pseudomonas aeruginosa [21] = test: Additive antibacterial activity against multidrug-resistant Pseudomonas aeruginosa CCARM 2095 strain assessed as fractional inhibitory concentration index in presence of chloramphenicol by checkerboard assay; type: functional
# Pseudomonas aeruginosa [22] = test: Additive antibacterial activity against multidrug-resistant Pseudomonas aeruginosa CCARM 2095 strain assessed as fractional inhibitory concentration index in presence of ciprofloxacin by checkerboard assay; type: functional
# Pseudomonas aeruginosa [23] = test: Additive antibacterial activity against multidrug-resistant Pseudomonas aeruginosa CCARM 2095 strain assessed as fractional inhibitory concentration index in presence of oxacillin by checkerboard assay; type: functional
# Staphylococcus aureus [24] = test: Additive antibacterial activity against methicillin-resistant Staphylococcus aureus CCARM 3089 strain assessed as chloramphenicol MIC by checkerboard assay; type: functional
# Staphylococcus aureus [25] = test: Additive antibacterial activity against methicillin-resistant Staphylococcus aureus CCARM 3089 strain assessed as ciprofloxacin MIC by checkerboard assay; type: functional
# Staphylococcus aureus [26] = test: Additive antibacterial activity against methicillin-resistant Staphylococcus aureus CCARM 3089 strain assessed as oxacillin MIC by checkerboard assay; type: functional
# Staphylococcus aureus [27] = test: Antibacterial activity against methicillin-resistant Staphylococcus aureus CCARM 3089 strain assessed as bacterial growth inhibition by checkerboard assay; type: functional
# Staphylococcus aureus [28] = test: Additive antibacterial activity against methicillin-resistant Staphylococcus aureus CCARM 3089 strain assessed as bacterial growth inhibition in presence of chloramphenicol by checkerboard assay; type: functional
# Staphylococcus aureus [29] = test: Additive antibacterial activity against methicillin-resistant Staphylococcus aureus CCARM 3089 strain assessed as bacterial growth inhibition in presence of ciprofloxacin by checkerboard assay; type: functional
# Staphylococcus aureus [30] = test: Additive antibacterial activity against methicillin-resistant Staphylococcus aureus CCARM 3089 strain assessed as bacterial growth inhibition in presence of oxacillin by checkerboard assay; type: functional
# Staphylococcus aureus [31] = test: Additive antibacterial activity against multidrug-resistant Staphylococcus aureus CCARM 3089 strain assessed as fractional inhibitory concentration index in presence of ciprofloxacin by checkerboard assay; type: functional
# Staphylococcus aureus [32] = test: Additive antibacterial activity against multidrug-resistant Staphylococcus aureus CCARM 3089 strain assessed as fractional inhibitory concentration index in presence of chloramphenicol by checkerboard assay; type: functional
# Pseudomonas aeruginosa [33] = test: Antibiofilm activity against multidrug-resistant Pseudomonas aeruginosa assessed as inhibition of biofilm formation; type: functional
# Lipopolysaccharide (LPS) [34] = test: Binding affinity to Escherichia coli O111:B4 lipopolysaccharide assessed as suppression of FTIC labeled LPS binding to mouse RAW264.7 cells at 20 ug/ml pretreated LPS with cells for 1 hr followed by compound addition measured after 1 hr by flow cytometer assay (reference value: 48.12%); type: cell-based; settings: dose 20.0 µg/ml
# Pseudomonas aeruginosa [35] = test: Antibiofilm activity against multidrug-resistant Pseudomonas aeruginosa assessed as biofilm eradication; type: functional
# Staphylococcus aureus [36] = test: Antibacterial activity against methicillin-resistant Staphylococcus aureus CCARM 3089 strain assessed as bacterial growth inhibition measured at 18 to 24 hrs by microdilution assay; type: functional; settings: time 18-24 hrs
# Staphylococcus aureus [37] = test: Antibacterial activity against methicillin-resistant Staphylococcus aureus CCARM 3090 strain assessed as bacterial growth inhibition measured at 18 to 24 hrs by microdilution assay; type: functional; settings: time 18-24 hrs
# Staphylococcus aureus [38] = test: Antibacterial activity against methicillin-resistant Staphylococcus aureus CCARM 3095 strain assessed as bacterial growth inhibition measured at 18 to 24 hrs by microdilution assay; type: functional; settings: time 18-24 hrs
# Pseudomonas aeruginosa [39] = test: Antibacterial activity against multidrug-resistant Pseudomonas aeruginosa CCARM 2095 strain assessed as bacterial growth inhibition measured at 18 to 24 hrs by microdilution assay; type: functional; settings: time 18-24 hrs
# Pseudomonas aeruginosa [40] = test: Antibacterial activity against multidrug-resistant Pseudomonas aeruginosa CCARM 2109 strain assessed as bacterial growth inhibition measured at 18 to 24 hrs by microdilution assay; type: functional; settings: time 18-24 hrs
# Enterococcus faecium = test: Antibacterial activity against vancomycin-resistant Enterococcus faecium ATCC 51559 strain assessed as bacterial growth inhibition measured at 18 to 24 hrs by microdilution assay; type: functional; settings: time 18-24 hrs
# Pseudomonas aeruginosa [41] = test: Antibacterial activity against multidrug-resistant Pseudomonas aeruginosa CCARM 2095 strain assessed as bacterial growth inhibition by checkerboard assay; type: functional
# Pseudomonas aeruginosa [42] = test: Synergistic antibacterial activity against multidrug-resistant Pseudomonas aeruginosa CCARM 2095 strain assessed as bacterial growth inhibition by checkerboard assay; type: functional
# Pseudomonas aeruginosa [43] = test: Bactericidal activity against multidrug-resistant Pseudomonas aeruginosa CCARM 2095 measured after 24 hrs by time-kill kinetics assay; type: functional, organism-based
# Pseudomonas aeruginosa [44] = test: Bacteriostatic activity against multidrug-resistant Pseudomonas aeruginosa CCARM 2095 measured after 24 hrs by time-kill kinetics assay; type: functional, organism-based
smiles,measurement,setting,value
CC[C@H](C)[C@H](NC(=O)[C@H](CCCCN)NC(=O)[C@H](CCC(=O)O)NC(=O)[C@H](CCCCN)NC(=O)[C@H](CO)NC(=O)[C@H](CCCCN)NC(=O)[C@H](CCCNC(=N)N)NC(=O)[C@H](Cc1ccccc1)NC(=O)[C@H](Cc1ccccc1)NC(=O)[C@H](CC(=O)O)NC(=O)CNC(=O)[C@H](CC(C)C)NC(=O)[C@@H](N)CC(C)C)C(=O)NCC(=O)N[C@@H](CCCCN)C(=O)N[C@@H](CCC(=O)O)C(=O)N[C@@H](Cc1ccccc1)C(=O)N[C@@H](CCCCN)C(=O)N[C@@H](CCCNC(=N)N)C(=O)N[C@H](C(=O)N[C@H](C(=O)N[C@@H](CCC(N)=O)C(=O)N[C@@H](CCCNC(=N)N)C(=O)N[C@H](C(=O)N[C@@H](CCCCN)C(=O)N[C@@H](CC(=O)O)C(=O)N[C@@H](Cc1ccccc1)C(=O)N[C@@H](CC(C)C)C(=O)N[C@@H](CCCNC(=N)N)C(=O)N[C@@H](CC(N)=O)C(=O)N[C@@H](CC(C)C)C(=O)N[C@H](C(=O)N1CCC[C@H]1C(=O)N[C@@H](CCCNC(=N)N)C(=O)N[C@H](C(=O)N[C@@H](CCC(=O)O)C(=O)N[C@@H](CO)C(=O)O)[C@@H](C)O)C(C)C)[C@@H](C)CC)C(C)C)[C@@H](C)CC [CATHELICIDIN],Activity,Cell membrane [1],Active
same,Activity,Lipopolysaccharide (LPS) [2],inactive
same,Flu intensity,Lipopolysaccharide (LPS) [3],10.4%
same,Activity,Cell membrane [4],Active
same,Activity,Cell membrane [5],inactive
same,Activity,Cell membrane [6],Active
same,Activity,Cell membrane [7],Active
same,MIC,Pseudomonas aeruginosa [8],32 µg/mL
same,MIC,Pseudomonas aeruginosa [9],512 µg/mL
same,MIC,Pseudomonas aeruginosa [10],256 µg/mL
same,MIC,Pseudomonas aeruginosa [11],512 µg/mL
same,MIC,Pseudomonas aeruginosa [12],16 µg/mL
same,MIC,Pseudomonas aeruginosa [13],16 µg/mL
same,MIC,Pseudomonas aeruginosa [14],8 µg/mL
same,FIC,Pseudomonas aeruginosa [15],0.5
same,FIC,Pseudomonas aeruginosa [16],0.25
same,FIC,Pseudomonas aeruginosa [17],0.5
same,FIC,Pseudomonas aeruginosa [18],0.5
same,FIC,Pseudomonas aeruginosa [19],0.5
same,FIC,Pseudomonas aeruginosa [20],0.25
same,fractional inhibitory concentration index (FICI),Pseudomonas aeruginosa [21],1
same,fractional inhibitory concentration index (FICI),Pseudomonas aeruginosa [22],0.75
same,fractional inhibitory concentration index (FICI),Pseudomonas aeruginosa [23],0.75
same,MIC,Staphylococcus aureus [24],64 µg/mL
same,MIC,Staphylococcus aureus [25],128 µg/mL
same,MIC,Staphylococcus aureus [26],256 µg/mL
same,MIC,Staphylococcus aureus [27],64 µg/mL
same,MIC,Staphylococcus aureus [28],32 µg/mL
same,MIC,Staphylococcus aureus [29],32 µg/mL
same,MIC,Staphylococcus aureus [30],32 µg/mL
same,fractional inhibitory concentration index (FICI),Staphylococcus aureus [31],0.75
same,fractional inhibitory concentration index (FICI),Staphylococcus aureus [32],0.675
same,MBEC50,Pseudomonas aeruginosa [33],14.2 µM
same,MBEC90,Pseudomonas aeruginosa [33],28.5 µM
same,MBIC,Pseudomonas aeruginosa [33],>7 µM
same,MBIC50,Pseudomonas aeruginosa [33],3.6 µM
same,Flu intensity,Lipopolysaccharide (LPS) [34],18.3%
same,MBEC50,Pseudomonas aeruginosa [35],14.2 µM
same,MBEC90,Pseudomonas aeruginosa [35],28.5 µM
O=C(N[C@H](CO)[C@H](O)c1ccc([N+](=O)[O-])cc1)C(Cl)Cl [CHLORAMPHENICOL],MIC,Staphylococcus aureus [36],3.16 mM
same,MIC,Staphylococcus aureus [37],> 6.33 mM
same,MIC,Staphylococcus aureus [38],> 6.33 mM
same,MIC,Pseudomonas aeruginosa [39],6.33 mM
same,MIC,Pseudomonas aeruginosa [40],> 6.33 mM
same,MIC,Enterococcus faecium,1.58 mM
same,MIC,Pseudomonas aeruginosa [41],1020 µg/mL
same,MIC,Pseudomonas aeruginosa [42],1020 µg/mL
same,MIC,Pseudomonas aeruginosa [8],1020 µg/mL
same,Activity,Pseudomonas aeruginosa [43],inactive
same,Activity,Pseudomonas aeruginosa [44],inactive
